From patent US8895047B2, “Combined fibrinolytic and antimicrobial catheter and uses thereof” (priority 2007, dated 2014)

Key:
human urokinase enzyme = target: T1, human urokinase enzyme (Homo sapiens, UniProt P00749); assay: uPA activity assay (chromogenic substrate) after incubation with antimicrobial agents; format: biochemical; conditions: for Urokinase activity in the presence of antimicrobial agent: concentrations up to 10 μg/mL, 24 hours at 37° C. with 88 units (0.5 μg) uPA in PBS, FIGS. 2 and 3
T1 construct: purchased American Diagnostica
Method: To check the compatibility of urokinase (uPA) and chlorhexidine acetate (CHA), human urokinase enzyme (American Diagnostica) at different concentrations (0, 0.05, 0.5, and 1.0 μg/mL) was incubated with CHA at concentrations between 0-10 μg/mL for 24 hours at 37° C. in phosphate buffered saline (PBS). Subsequently, urokinase activity was measured using uPA Activity Assay Kit (Chemicon). Samples were incubated with an assay buffer and a chromogenic substrate for uPA resulting in the formation of a colored complex followed by reading the absorbance on a spectrophotometer at 405 nm. In a 96 well plate, different combinations of chlorhexidine (CHX), gentian violet (GV), minocycline and rifampin were incubated at concentrations of 0, 1, 10 μg/mL, for 24 hours at 37° C., with 88 units (0.5 μg) of uPA in PBS. Urokinase activity was measured using uPA Activity Assay Kit as described earlier.

S. epidermidis = assay: Minimum inhibitory concentration of chlorhexidine acetate against S. epidermidis; format: cell-based
Method: FIG. 4. Chlorhexidine activity in the presence of urokinase. […] CHA MIC Control=urokinase in tris-buffered saline (TBS)+CHA+Mueller-Hinton broth (MHB); Growth Control=dimethyl sulfoxide (DMSO)+TBS+S. epidermidis+MHB; Negative Control=DMSO+TBS+MHB.
To determine if urokinase affects the antimicrobial efficacy of chlorhexidine, the following experiment was conducted. The minimum inhibitory concentration (MIC) of chlorhexidine acetate (CHA) against S. epidermidis is 0.5 ppm in the absence of urokinase. Absorbance above baseline on the plot in […] indicates growth of microbial organisms (i.e., inability to inhibit microbial growth). An increase in the MIC would be indicative of a reduction in the antimicrobial potency of CHA due to interference by Urokinase.

human tPA = target: T2, human tPA (Homo sapiens, UniProt P00750); assay: tPA activity assay (chromogenic substrate) after incubation with antimicrobial agents; format: biochemical; conditions: concentrations up to 10 μg/mL, overnight at 37° C. with 50 units human tPA; FIGS. 5 and 6
T2 construct: purchased Sigma
Method: Different combinations of CHX, GV, minocycline and rifampin (0, 1, 10 μg/mL) were incubated overnight with 50 units of human tPA (Sigma) at 37° C., in buffer (30 mM Tris-HCl, 30 mM Imidazole, 130 mM NaCl, 1% protease free albumin). Samples were incubated with the chromogenic substrate (Sigma); tPA activity was determined by the hydrolysis of the substrate being measured continuously at 405 nm for 5 min at 50 seconds intervals. A standard curve was generated and the units plotted against the slope of the hydrolysis reaction.

human streptokinase = target: T3, human streptokinase (Streptococcus dysgalactiae subsp. equisimilis, UniProt P00779); assay: Streptokinase activity assay (S-2251 chromogenic substrate, plasminogen) after incubation with antimicrobial agents; format: biochemical; conditions: any concentration up to 10 μg/mL, overnight at 37° C. with 16.5 units streptokinase; FIG. 7
T3 construct: purchased Sigma
Method: In a 96 well plate, different combinations of chlorhexidine (0, 1, 10 μg/mL) and gentian violet (0, 1, 10 μg/mL) were incubated overnight with 16.5 units of human streptokinase (Sigma) at 37° C., in 10 mM Tris-HCl buffer containing 0.1M NaCl and 1 mg/mL albumin. Streptokinase activity was measured using a chromogenic substrate S-2251 (Chromogenix). Samples were incubated with 0.6 mM S-2251 and 0.1 U/ml plasminogen (Sigma) for one hour. Hydrolysis of the substrate was measured at 405 nm and a standard curve was generated with the units plotted against the slope of the hydrolysis reaction.

T2 sequence (P00750 36-562): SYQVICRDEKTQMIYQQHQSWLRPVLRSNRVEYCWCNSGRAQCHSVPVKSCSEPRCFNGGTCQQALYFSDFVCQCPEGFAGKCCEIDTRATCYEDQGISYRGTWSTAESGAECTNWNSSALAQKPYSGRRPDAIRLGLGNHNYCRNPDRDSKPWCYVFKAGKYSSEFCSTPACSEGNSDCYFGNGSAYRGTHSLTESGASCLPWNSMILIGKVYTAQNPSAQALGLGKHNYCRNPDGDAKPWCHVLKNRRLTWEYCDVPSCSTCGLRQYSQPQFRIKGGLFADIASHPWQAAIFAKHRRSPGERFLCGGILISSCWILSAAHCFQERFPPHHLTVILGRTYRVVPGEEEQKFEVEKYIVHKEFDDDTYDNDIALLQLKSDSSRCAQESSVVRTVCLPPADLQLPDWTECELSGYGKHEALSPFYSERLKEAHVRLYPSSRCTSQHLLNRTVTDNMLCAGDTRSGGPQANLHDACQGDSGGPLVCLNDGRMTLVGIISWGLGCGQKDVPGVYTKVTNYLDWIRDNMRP
T3 sequence (P00779 27-440): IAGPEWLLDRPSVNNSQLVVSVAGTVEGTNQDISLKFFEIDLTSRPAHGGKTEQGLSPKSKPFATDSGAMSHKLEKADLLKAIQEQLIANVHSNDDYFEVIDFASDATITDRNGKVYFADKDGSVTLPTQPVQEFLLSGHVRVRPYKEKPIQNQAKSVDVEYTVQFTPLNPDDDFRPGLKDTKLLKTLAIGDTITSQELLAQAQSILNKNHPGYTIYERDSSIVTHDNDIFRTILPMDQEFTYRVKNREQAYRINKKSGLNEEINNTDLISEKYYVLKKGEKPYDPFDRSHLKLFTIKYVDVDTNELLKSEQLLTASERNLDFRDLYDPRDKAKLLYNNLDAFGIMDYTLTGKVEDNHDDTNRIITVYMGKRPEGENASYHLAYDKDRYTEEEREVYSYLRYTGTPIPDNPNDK

Row | Structure (SMILES) | Urokinase activity in the presence of CHA (human urokinase enzyme; CHA 0-10 μg/mL with uPA 0-1.0 μg/mL, 24 hours at 37° C. in PBS, CHA:uPA ratio 0.05 or higher, FIG. 1) | minimum inhibitory concentration (MIC) (S. epidermidis; in the absence of urokinase) [ppm] | MIC in the presence of Urokinase (S. epidermidis; presence of urokinase, FIG. 4) | Urokinase activity in the presence of antimicrobial agent (human urokinase enzyme) | tPA activity in the presence of antimicrobial agent (human tPA) | streptokinase activity in the presence of antimicrobial agent (human streptokinase)
1 | CC(=O)O.CC(=O)O.NC(=N\CCCCCC/N=C(N)/N=C(\N)Nc1ccc(Cl)cc1)/N=C(\N)Nc1ccc(Cl)cc1 [CHA, chlorhexidine acetate] | not affected | 0.5 | not affected |  |  | 
2 | [H]/N=C(\N/C(=N/[H])NCCCCCCNC(=N)NC(=N)Nc1ccc(Cl)cc1)Nc1ccc(Cl)cc1 [CHX, chlorhexidine] |  |  |  | not adversely affected | not affected | unaffected
3 | CN(C)c1ccc(C(=C2C=CC(=[N+](C)C)C=C2)c2ccc(N(C)C)cc2)cc1 [GV, gentian violet] |  |  |  | not adversely affected | not affected | unaffected
4 | CO[C@H]1/C=C/O[C@@]2(C)Oc3c(C)c(O)c4c(O)c(c(/C=N/N5CCN(C)CC5)c(O)c4c3C2=O)NC(=O)/C(C)=C\C=C\[C@H](C)[C@H](O)[C@@H](C)[C@@H](O)[C@@H](C)[C@H](OC(C)=O)[C@@H]1C [rifampin] |  |  |  | not adversely affected | not affected | 
